Tests used:
TNFα mRNA expression [1] = experiment: Inhibition of LPS-induced TNFα mRNA expression in NRK52E; assay type: cell-based, Rat; conditions: 10 μM for 30 min, then LPS 24 hours
Description: (§1) Rat kidney epithelial cells (ATCC #CRL-1571) were maintained in DMEM medium containing 10% fetal bovine serum, and 1% Penicillin-Streptomycin solution (Sigma-Aldrich). NRK52E cells were passaged by trypsinization when the cultures reached a confluency of 70%. For all experiments, NRK52E cells were seeded at 0.6·10^5 cells/cm^2 and allowed to adhere for 24 hours.
(§2) HUVEC and NRK52E cells were pre-incubated with SUL compounds (10 μM) for 30 min and subsequently exposed to LPS for 24 hours under standard culture conditions. Cells were lysed in triZOL reagens (Invitrogen) and total RNA isolated according to manufacturers' instruction. 1 μg total RNA per sample was reverse transcribed using the FirstAid Reverse Transcription Kit (ThermoFisher). Copy-DNA equivalents of 5 ng total RNA were amplified on a ViiA7 Real-time PCR system (ThermoFisher, Waltham, Mass.) using iTaq Universal SYBR Green Supermix (Bio-Rad, Hercules, Calif.) and primers specific for tumor necrosis factor alpha, interleukin 1 beta, interleukin-6 and beta actin as loading control. Amplification was performed for 40 cycles of 95° C. for 30 s, 60° C. for 1 min. Relative mRNA expression was calculated as 2^−(Cq^gene^−Cq^reference^) and normalized to unstimulated control cells (100% inhibition) and vehicle-treated and LPS exposed cells (0% inhibition). The following primers were used: […]

[2] = test system: sepsis induction in Drosophila melanogaster (Staphylococcus aureus); experiment: S. aureus sepsis in flies, survival and negative geotaxis; assay type: in vivo; conditions: flies with S. aureus sepsis
Description: W1118 flies were bred and housed at 25° C. with a 12 h:12 h light/dark-cycle. Flies were kept in vials containing approximately 5 mL of standard yeast-cornmeal medium. Flies kept as a stock were flipped to fresh vials weekly. The used yeast-cornmeal medium was prepared to the instructions of Stocker and Gallant's ‘Drosophila Methods and Protocols’ and consisted of 100 grams yeast, 75 grams glucose, 8 grams agar, 55 grams cornmeal, and 10 grams wheat flour per litre of water. After boiling, phosphoric acid and propionic acid were added to the mixture to prevent fungal growth.
Staphylococcus aureus (S. aureus) was aerobically cultured overnight in 2.5% tryptic soy broth (TSB) at 37° C. with continuous rotation (200 rounds per minute), from an S. aureus glycerol stock kept at −80° C. For each experiment, a fresh culture was prepared one day prior to the experiment. For bacterial infection, optical density (OD) was measured the following day at 600 nm. Clean TSB was used as OD=0.00 and the bacterial culture was diluted to OD=2.20 with PBS. Next, 1.0 mL of the bacterial culture (OD=2.20) was centrifuged at 14,000 g for 1 minute, the supernatant was discarded, and the bacterial pellet resuspended in 1.0 mL PBS. Serial dilutions (5× and 25× diluted in PBS with optical densities of approximately 1.05 and 0.25, respectively) were used in the appropriate experiments. […]

IL-6 mRNA expression [3] = experiment: Inhibition of LPS-induced IL-6 mRNA expression in NRK52E; assay type: cell-based, Rat; conditions: 10 μM for 30 min, then LPS 24 hours
Description: as §1, §2

TNFα mRNA expression [4] = experiment: Inhibition of LPS-induced TNFα mRNA expression in HUVEC; assay type: cell-based, Human; conditions: 10 μM for 30 min, then LPS 24 hours
Description: (§3) Human Umbilical Cord Endothelial Cells (HUVEC, Lonza CC-2519) were maintained on 1% gelatin-coated culture flasks in RPMI1640 medium containing 20% fetal bovine serum, 2 mM Glutamine (Sigma-Aldrich), 1% Penicillin-Streptomycin solution (Sigma-Aldrich) and 50 μg/ml Bovine Pituitary Extract (Invitrogen). HUVEC were passaged by trypsinization when the cultures reach a confluency of 70%. For all experiments, HUVEC were seeded at 0.6·10^5 cells/cm^2 and allowed to adhere for 24 hours.
as §2

IL-6 mRNA expression [5] = experiment: Inhibition of LPS-induced IL-6 mRNA expression in HUVEC; assay type: cell-based, Human; conditions: 10 μM for 30 min, then LPS 24 hours
Description: as §3, §2

IL-1β mRNA expression [6] = experiment: Inhibition of LPS-induced IL-1β mRNA expression in HUVEC; assay type: cell-based, Human; conditions: 10 μM for 30 min, then LPS 24 hours
Description: as §3, §2

NO production in HUVEC = experiment: Endothelial NO production (nitrate in conditioned medium), basal and after LPS; assay type: cell-based, Human; conditions: 10 μM pre-treatment, LPS 100 ng/ml for 24 hours
Description: as §3
Cellular production of NO was approximated by measuring nitrate concentrations in culture media using the Measure-IT™ High-Sensitivity Nitrite Assay Kit (#M36051, ThermoFisher) according to manufacturer's instructions. […] Therefore, nitrate concentrations in conditioned media are a good approximate to assess cellular NO production. 50 μl conditioned medium derived from a single 96-wells plate well was used per assay and normalized against protein concentration. All experiments were performed in quadruplicate.
Endotoxins suppress endothelial NO production by limiting the activity of eNOS. HUVEC were pre-treated with vehicle (DMSO), BN-80933, SUL-138, or SUL-150 or (all 10 μM) prior to endotoxin (LPS 100 ng/ml) exposure for 24 hours. The nitrate levels in the conditioned medium from endothelial cells exposed to LPS averaged at 160 pmol/mg protein (˜33% reduction versus non LPS exposed HUVEC, p=0.002), which was lower than basal control levels. BN-80933 further suppressed the nitrate levels in the conditioned medium (FIG. 7A) to an average of 90 pmol/mg protein (p=0.008).

HUVEC = experiment: Cell viability after hypothermia-rewarming stress (Neutral Red); assay type: cell-based, Human; conditions: 10 μM for 1 hour, 4° C. for 24 hours followed by 37° C. for 3 hours
Description: as §3
HUVEC were pre-treated with BN-80933, SUL-138 or SUL-150 (all 10 μM) for 1 hour in a humidified incubator at 37° C. Following pre-treatment, HUVEC were placed in a cold room (2-8° C.) for 24 hours and subsequently placed back at 37° C. for a 3 hour rewarming period. After 1 hour of rewarming, cell culture medium was replaced by prewarmed and filtered 0.4 mg/mL Neutral Red (#N463 8, Sigma-Aldrich) in culture medium. After the remaining 2 hour rewarming period, HUVEC were washed with PBS and NRU was solubilized in 100 μL resorption solution (50% ethanol, 1% ascetic acid in dH2O). The absorbance was measured at a wavelength of 550 nm on a BioTek ELx808 plate reader. The recorded OD550 nm values were normalized to control samples that were maintained at 37° C. at all times, which were assumed to be 100% viable.

IL-1β mRNA expression [7] = experiment: Endothelial inflammatory activation after endotoxin, IL-1β mRNA (Example 5); assay type: cell-based, Human; conditions: HUVEC; 10 μM for 30 min
Description: as §3
(§4) HUVEC cells were lysed in triZOL reagens (Invitrogen) and total RNA isolated according to manufacturers' instruction. 1 μg total RNA per sample was reverse transcribed using the FirstAid Reverse Transcription Kit (ThermoFisher). Copy-DNA equivalents of 5 ng total RNA were amplified on a ViiA7 Real-time PCR system (ThermoFisher, Waltham, Mass.) using iTaq Universal SYBR Green Supermix (Bio-Rad, Hercules, Calif.) and primers specific for tumor necrosis factor alpha (TNFα; sense 5′-[…]-3′, antisense 5′-[…]-3′), interleukin 1 beta (IL-1β; sense 5′-[…]-3′, antisense 5′-[…]-3′), interleukin-6 (IL-6; sense 5′-[…]-3′, antisense 5′-[…]-3′) and beta actin (ACTB; sense 5′-[…]-3′, antisense 5′-[…]-3′) as loading control. Amplification was performed for 40 cycles of 95° C. for 30 s, 60° C. for 1 min. Relative mRNA expression was calculated according to the δδCt-method.

[8] = test system: NO production in RAW264.7 macrophages; experiment: Macrophage NO production (nitrate in conditioned medium), basal and after LPS; assay type: cell-based, Mouse
Description: Mouse macrophage RAW264.7 cells (ATCC #TIB-71) were maintained in DMEM medium containing 10% fetal bovine serum, and 1% Penicillin-Streptomycin solution (Sigma-Aldrich). […] For all experiments, RAW264.7 cells were seeded at 0.5·10^5 cells/cm^2 and allowed to adhere for 24 hours. Cellular production of NO was approximated by measuring nitrate concentrations in culture media using the Measure-IT™ High-Sensitivity Nitrite Assay Kit (#M36051, ThermoFisher) according to manufacturer's instructions. […] Therefore, nitrate concentrations in conditioned media are a good approximate to assess cellular NO production. 50 μl conditioned medium derived from a single 96-wells plate well was used per assay and normalized against protein concentration. All experiments were performed in quadruplicate. LPS induces macrophage NO production by activating iNOS. RAW264.7 macrophages were pre-treated with vehicle (DMSO), BN-80933, SUL-138, or SUL-150 or (all 10 μM) prior to endotoxin (LPS 100 ng/ml) exposure for 24 hours. The nitrate levels in the conditioned medium from LPS exposed RAW264.7 macrophages averaged at 83 pmol/mg protein (˜16-fold increase versus non-exposed RAW264.7 cells, p=0.001).

[9] = test system: mitochondrial oxidative stress in HUVEC; experiment: LPS-induced mitochondrial superoxide in HUVEC (MitoSox); assay type: cell-based, Human; conditions: 10 μM for 30 min, LPS 100 ng/ml 24 hours
Description: as §3
(§5) The production of cellular and mitochondrial oxidative stress was measured using fluorescent probes for cellular and mitochondrial superoxide, i.e. dihydroethidium (DHE) and MitoSox (ThermoFisher), respectively. HUVEC were incubated with BN-80933, SUL-138 or SUL-150 (all 10 μM) for 30 min. Next, HUVEC were exposed to LPS (100 ng/ml) for an additional 24 hours. In the final hour of incubation, 2.5 μM of DHE or MitoSox was applied to each sample. HUVEC were washed in PBS and fixed in 4% paraformaldehyde at room temperature for 15 min. Nuclear staining was performed by 5 μM […] (DAPI) and fluorescence intensity of the samples was recorded in a CLARIOStar Plus plate reader (BMG Labtech) equipped with the appropriate filter sets. Fluorescence recordings for DHE and MitoSox were corrected for DAPI fluorescence. All experiments were performed in quadruplicate.

[10] = test system: cytoplasmic oxidative stress in HUVEC; experiment: LPS-induced cellular superoxide in HUVEC (DHE); assay type: cell-based, Human; conditions: 10 μM for 30 min, LPS 100 ng/ml 24 hours
Description: as §3, §5

TNFα mRNA expression [11] = experiment: Endothelial inflammatory activation after endotoxin, TNFα mRNA (Example 5); assay type: cell-based, Human; conditions: HUVEC; 10 μM for 30 min
Description: as §3, §4

IL-6 mRNA expression [12] = experiment: Endothelial inflammatory activation after endotoxin, IL-6 mRNA (Example 5); assay type: cell-based, Human; conditions: HUVEC; 10 μM for 30 min
Description: as §3, §4

Compound	inhibition of LPS-induced mRNA expression of TNFα (TNFα mRNA expression [1]) [%]	Geotaxis ([2]; 3 mM SUL-151, 24 hr and 48 hr after induction)	Survival after 24 hr ([2]; 3 mM SUL-151 intrathoracic injection with the bacteria) [%]	inhibition of LPS-induced mRNA expression of IL-6 (IL-6 mRNA expression [3]) [%]	inhibition of LPS-induced mRNA expression of TNFα (TNFα mRNA expression [4]) [%]	inhibition of LPS-induced mRNA expression of IL-6 (IL-6 mRNA expression [5]) [%]	inhibition of LPS-induced mRNA expression of IL-1β (IL-1β mRNA expression [6]) [%]	nitrate levels in the conditioned medium after LPS (NO production in HUVEC)	reduction in cell viability versus normothermic control cells (HUVEC) [%]	LPS-induced mRNA expression of IL-1β (IL-1β mRNA expression [7])	LPS-induced increase in extracellular nitrate level ([8]; 10 μM pre-treatment, LPS 100 ng/ml for 24 hours)	basal production of extracellular nitrate ([8]; no LPS, 10 μM)	LPS-induced mitochondrial oxidative stress (MitoSox) [9]	LPS-induced cytoplasmic oxidative stress (DHE) [10]	LPS-induced mRNA expression of TNFα (TNFα mRNA expression [11])	LPS-induced mRNA expression of IL-6 (IL-6 mRNA expression [12])
Cc1c(C)c2c(c(C)c1O)CC[C@@](C)(C(=O)N1CCNCC1)O2 [SUL-151, (S)-(6-hydroxy-2,5,7,8-tetramethylchroman-2-yl)(piperazin-1-yl)methanone]	72.1 ± 14.5	improved both at 24 hr and 48 hr	80	83.1 ± 8.3	72.5 ± 3.2	65.4 ± 4.6	76.7 ± 1.2									
Cc1c(C)c2c(c(C)c1O)CC[C@](C)(C(=O)N1CCNCC1)O2 [SUL-150, (R)-(6-hydroxy-2,5,7,8-tetramethylchroman-2-yl)(piperazin-1-yl)methanone]					79.8 ± 4.1	69.3 ± 3.9	78.9 ± 6.0	mitigated the LPS-induced reduction in nitrate levels and their levels did not change from basal nitrate level	~15	precluded the LPS-induced increase in IL-1β and IL-6	Neither SUL-138 nor SUL-150 strongly suppressed the LPS-induced increase in nitrate production	Neither BN-80933, SUL-138, nor SUL-150 affected the basal production of extracellular nitrate	precluded the LPS-induced increase in mitochondrial oxidative stress	mitigates the induction of cytoplasmic oxidative stress	precludes the induction of mRNA expression of the pro-inflammatory cytokine TNFα	precluded the LPS-induced increase in IL-1β and IL-6

From patent US20230202997A1, “CHROMANOL, QUINONE OR HYDROQUINONE COMPOUNDS FOR TREATMENT OF SEPSIS” (Sulfateq B.V., priority 2020, published 2023)
